The values that follow come from article PMC7370187, “Screening of an Epigenetic Drug Library Identifies 4-((hydroxyamino)carbonyl)-N-(2-hydroxyethyl)-N-Phenyl-Benzeneacetamide that Reduces Melanin Synthesis by Inhibiting Tyrosinase Activity Independently of Epigenetic Mechanisms” (International Journal of Molecular Sciences, 2020).

For data set [1], the system named is tyrosinase (TYR) activity in B16-F10 cells. The data set can be described thus: Cellular TYR activity assay (lysates of treated cells). Type of data set: cell-based, murine. The conditions noted are these: 100 nM α-MSH, 24 h, cell lysates. As to the method: After B16-F10 cells were treated with drug and/or α-MSH, the TYR activity of cell extracts was determined by an indirect spectrophotometric method to monitor dopachrome formation with L-tyrosine plus L-DOPA as the substrates. Total cellular protein was extracted from the treated cells using a lysis buffer of 10 mM Tris-HCl buffer (pH 7.4) containing 120 mM NaCl, 25 mM KCl, 2.0 mM EDTA, 1.0 mM EGTA, 0.5% Triton X-100, and a protease inhibitor cocktail (Roche, Mannheim, Germany) at 4 °C, followed by centrifugation at 13,000× g for 15 min. The TYR activity assay mixture (200 μL) consisting of 100 mM sodium phosphate buffer (pH 6.8), 1.0 mM L-tyrosine, and 42 μΜ L-DOPA was incubated with 40 μg cellular protein extract at 37 °C, and changes in absorbance at 475 nm over time were measured using a Spectrostar Nano microplate reader.

Data set [2] can be described thus: Copper chelating activity assay (pyrocatechol violet). Type of data set: physicochemical. Conditions: 200 μM test compound, 200 μM copper ions, 200 μM pyrocatechol violet, absorbance 632 nm. On the procedure:
Copper chelating activity was determined by using pyrocatechol violet (Sigma-Aldrich). […] The reaction mixture containing a potential chelator at varied concentrations, 200 μM CuSO4, and 200 μM pyrocatechol violet was incubated at 25 °C for 20 min, and its absorption spectra were recorded using a Shimadzu UV-1650PC spectrophotometer (Shimadzu Corporation, Kyoto, Japan). Copper chelating activity was evaluated by the change in the absorbance of pyrocatechol violet at 632 nm.

The subject of data set [3] is B16-F10 murine melanoma cells. In words: Screening assay for overall melanin synthesis (OD 400 nm) in α-MSH-stimulated cells. The format is cell-based. The conditions noted are these: 100 nM α-MSH, 72 h. On the procedure:
For the screening assay, B16-F10 cells were plated in 96-well plates (3 × 10^3 cells per well) and cultured for 24 h. The cells were then treated with a test drug at 1.0 μM for 60 min, and subsequently stimulated with 0.1 μM α-MSH for 72 h. Overall melanin synthesis was estimated by measuring the absorbance of each well (cells plus medium, without cell lysis) at 400 nm using a Spectrostar Nano microplate reader (BMG LABTECH GmbH, Ortenberg, Germany).

In data set [4] the test system is B16-F10 cells. In words: Cell viability assay (MTT). The format is cell-based, murine. Conditions: 48 h. As to the method:
Cell viability was evaluated using 3-(4,5-dimethylthiazol-2-yl)-2,5-diphenyltetrazolium bromide (MTT). After treatment of B16-F10 cells with each drug for 48 h, cells were washed with phosphate-buffered saline (PBS) and incubated for 2 h in the culture medium containing 1 mg∙mL^−1 MTT (Amresco, Solon, OH, USA). The medium was discarded by aspiration, the formazan dye deposited inside the cells was extracted with isopropanol, and absorbance was measured at 595 nm using a Spectrostar Nano microplate reader.

The target in data set [5] is T1, human TYR (Homo sapiens, UniProt P14679).
T1 construct: expressed in transfected cells; Triton X-100 lysate supernatant
T1 sequence (P14679 19-529): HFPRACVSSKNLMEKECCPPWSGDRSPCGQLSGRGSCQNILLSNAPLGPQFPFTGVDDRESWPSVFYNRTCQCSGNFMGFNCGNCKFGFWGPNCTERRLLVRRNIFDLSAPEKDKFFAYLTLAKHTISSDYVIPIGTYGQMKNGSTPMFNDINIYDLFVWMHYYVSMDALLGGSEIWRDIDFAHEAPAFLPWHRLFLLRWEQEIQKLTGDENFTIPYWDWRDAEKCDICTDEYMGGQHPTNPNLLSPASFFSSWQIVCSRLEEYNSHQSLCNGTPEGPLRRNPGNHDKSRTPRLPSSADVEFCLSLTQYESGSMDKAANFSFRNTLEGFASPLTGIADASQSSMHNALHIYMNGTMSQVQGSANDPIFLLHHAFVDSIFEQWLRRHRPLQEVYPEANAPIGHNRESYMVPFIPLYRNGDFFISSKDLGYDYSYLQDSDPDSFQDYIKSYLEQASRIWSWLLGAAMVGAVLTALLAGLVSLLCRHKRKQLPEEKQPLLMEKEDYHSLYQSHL
In words: In vitro TYR catalytic activity assay, lysate of HEK293-TYR cells. The format is biochemical. As to the method:
To examine the direct effect of a drug on the catalytic activity of TYR, in vitro experiments were undertaken. Lysate of B16F10 cells stimulated with α-MSH for 24 h was used as a murine TYR preparation. Human TYR preparation was the lysate of human embryonic kidney 293 cells constitutively expressing human TYR (HEK293-TYR). […] The TYR activity assay mixture (200 μL) consisted of 100 mM sodium phosphate buffer (pH 6.8), TYR preparation (40 μg protein), a drug at various concentrations, 1.0 mM L-tyrosine, and 42 μΜ L-DOPA. For enzyme kinetic study, the concentrations of L-tyrosine plus L-DOPA were varied while their relative ratio was kept the same as the standard assay condition. […] The reactions were also performed in the absence of a TYR preparation to correct for the effects of non-enzymatic reactions. Enzyme activity was calculated as follows: activity (% control) = (C−D)/(A−B) × 100, where A and B are the absorbance changes of the control group with and without enzyme, respectively, while C and D are the absorbance changes of the test group with and without enzyme, respectively.

As a reminder, the IC50 is the concentration at which inhibition is half-maximal.

Entries after “also recorded” stand apart in the source; their conditions may differ.

`O=C(NO)c1ccc(CC(=O)N(CCO)c2ccccc2)cc1` [K8, 4-((hydroxyamino)carbonyl)-N-(2-hydroxyethyl)-N-phenyl-benzeneacetamide]: in data set [1], the “cellular TYR activity” value is given as “attenuated; also recorded: only partially lowered by 10 µM K8”. In data set [2], the copper ions chelated is reported as 27%. In addition, the “relative melanin synthesis (OD 400 nm)” value in data set [3] (drug 1.0 μM) is reported as “markedly inhibited cellular melanin synthesis”. Also, the “melanin synthesis (OD 400)” value in data set [3] (drug at varied concentrations) is “attenuated by both drugs in a dose-dependent manner; also recorded: suppressed almost all melanin synthesis”. In addition, in data set [4] (drug 1.0 μM), the relative viability result is recorded as “without reducing cell viability”. The “cytotoxicity (relative viability)” value in data set [4] (drug at various concentrations) is on record as “did not show toxic effects up to 10 μM”. Moreover, the IC50 in data set [5] (HEK293-TYR cell-free extract, L-tyrosine plus L-DOPA) is 1100 nM. The “human TYR inhibitory effect” value in data set [5] (each drug at 1.0 μM, library screening) is reported as “potent TYR inhibitory effects”.
